This note sets out measurements from BindingDB's records for doi:10.3109/14756366.2012.680062 (Shandong University, 2013).

pIC50: −log10 of the molar value.

This test addresses T1, Aminopeptidase N (Sus scrofa, UniProt P15145).
T1 sequence (P15145 whole entry): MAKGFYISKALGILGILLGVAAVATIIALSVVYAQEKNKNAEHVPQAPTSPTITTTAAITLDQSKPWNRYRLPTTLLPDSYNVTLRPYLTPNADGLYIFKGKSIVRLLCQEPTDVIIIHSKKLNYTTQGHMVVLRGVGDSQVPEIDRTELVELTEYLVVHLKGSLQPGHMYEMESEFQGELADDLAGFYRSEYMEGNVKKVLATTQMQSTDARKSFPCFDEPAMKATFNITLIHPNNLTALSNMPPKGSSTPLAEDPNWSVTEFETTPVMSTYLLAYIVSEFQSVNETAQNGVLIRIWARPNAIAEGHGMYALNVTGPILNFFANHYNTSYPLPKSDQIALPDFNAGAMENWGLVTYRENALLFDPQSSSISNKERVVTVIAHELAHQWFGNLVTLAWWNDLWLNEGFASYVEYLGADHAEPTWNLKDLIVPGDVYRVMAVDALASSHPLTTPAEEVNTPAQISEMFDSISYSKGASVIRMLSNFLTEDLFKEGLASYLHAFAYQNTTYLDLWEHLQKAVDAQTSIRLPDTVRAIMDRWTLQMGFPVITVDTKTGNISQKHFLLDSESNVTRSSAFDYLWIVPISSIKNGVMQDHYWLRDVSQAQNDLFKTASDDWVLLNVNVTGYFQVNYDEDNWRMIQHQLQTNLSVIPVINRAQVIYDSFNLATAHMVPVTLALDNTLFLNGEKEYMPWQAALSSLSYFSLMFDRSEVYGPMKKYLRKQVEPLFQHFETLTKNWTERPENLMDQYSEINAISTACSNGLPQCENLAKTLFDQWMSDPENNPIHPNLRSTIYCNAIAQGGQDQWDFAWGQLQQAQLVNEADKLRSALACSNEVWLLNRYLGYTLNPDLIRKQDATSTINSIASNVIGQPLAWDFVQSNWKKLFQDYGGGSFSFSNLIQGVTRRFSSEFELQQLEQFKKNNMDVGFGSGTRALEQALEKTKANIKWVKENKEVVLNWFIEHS
The experiment in a line: In Vitro APN Inhibition Assay. The settings on record: pH 7.2.
What is called pIC50 is −log10 of the IC50, conventionally taken in molar units. `NC[C@H](O)C(=O)N[C@H](C(=O)N[C@@H](Cc1ccccc1)C(=O)O)c1ccccc1` [L-isoserine-L-phenylglycine-L-phenylalanine (16g)]: the pIC50 was 5.24. In turn, `CC(C)C[C@H](NC(=O)[C@@H](O)CN)C(=O)N[C@H](C(=O)O)C(C)C` [L-isoserine-L-leucyl-L-valine (16i)] showed a pIC50 of 5.29.

In turn, `CC(C)C[C@H](NC(=O)[C@@H](O)CN)C(=O)N[C@@H](Cc1ccc(O)cc1)C(=O)O` [L-isoserine-L-eucyl-L-tyrosinase (16m)] showed a pIC50 of 4.76. As to `CC(C)C[C@H](NC(=O)[C@@H](NC(=O)[C@@H](O)CN)C(C)C)C(=O)O` [L-isoserine-L-valine-L-leucyl (16h)], the negative-log IC50 (pIC50) is 5.19. The figure for `CC(C)[C@H](NC(=O)[C@@H](O)CN)C(=O)N[C@@H](Cc1ccccc1)C(=O)O` [L-isoserine-L-valine-L-phenylalanine (16d)] is 4.52; for `CC(C)C[C@H](NC(=O)[C@H](Cc1ccc(O)cc1)NC(=O)[C@@H](O)CN)C(=O)O` [L-isoserine-L-tyrosinase-L-leucyl (16l)] it is 5.60. The figure for `NC[C@H](O)C(=O)N[C@@H](Cc1ccccc1)C(=O)N[C@@H](Cc1ccccc1)C(=O)O` [L-isoserine-L-phenylalanine-L-phenylalanine (16n)] is 5.19.

As to `CC(C)[C@H](NC(=O)[C@H](Cc1ccc(O)cc1)NC(=O)[C@@H](O)CN)C(=O)O` [L-isoserine-L-tyrosinase-L-valine (16e)], the pIC50 is 4.94. `CC(C)[C@H](NC(=O)[C@H](Cc1ccccc1)NC(=O)[C@@H](O)CN)C(=O)O` [L-isoserine-L-phenylalanine-L-valine (16b)] showed a pIC50 of 4.03. `CCC(C)[C@H](NC(=O)[C@H](Cc1ccccc1)NC(=O)[C@@H](O)CN)C(=O)O` (stereo partly drawn) [2-[2-(3-amino-2-hydroxypropanamido)-3-phenylpropanamido]-3-methylpentanoic acid (16a)] had a pIC50 of 4.52. In turn, `CC(C)[C@H](NC(=O)[C@@H](NC(=O)[C@@H](O)CN)C(C)C)C(=O)O` [L-isoserine-L-valine-L-valine (16f)] showed a negative-log IC50 (pIC50) of 4.87. The figure for `CC(C)[C@H](NC(=O)[C@@H](NC(=O)[C@@H](O)CN)c1ccccc1)C(=O)O` [L-isoserine-L-phenylglycine-L-valine (16c)] is 4.29. The figure for `CC(C)C[C@H](NC(=O)[C@@H](NC(=O)[C@@H](O)CN)c1ccccc1)C(=O)O` [L-isoserine-L-phenylglycine-L-leucyl (16k)] is 4.94.
